Source: US9234168B2, “Compositions containing amino acids, phosphate and manganese and their uses” (The Henry M. Jackson Foundation for the Advancement of …, priority 2010, dated 2016)

Key:
mammalian cell line = experiment: Radioprotection of a mammalian cell line; format: cell-based; details: agent alone
Text: (§1) Applicants have shown that adenosine alone and Mn(II) alone are radioprotective […] for a mammalian cell line and for a bacterial cell culture.

bacterial cell culture = experiment: Radioprotection of a bacterial cell culture; format: cell-based; details: agent alone
Text: as §1

E. coli = format: cell-based, Escherichia coli; details: 3 kGy; TGY supplemented with 1 μM Mn^2+, 13 mM phosphate, 3 mM uridine or 384 mM (3%) DMSO individually
Protocol: FIG. 3 depicts the survival curves of E. coli exposed to acute IR and grown in the presence of various supplements: TGY, standard peptide-rich growth medium; DMSO, dimethyl sulfoxide; UMnP, 3 mM uridine/1 μM Mn^2+/13 mM PiB (phosphate buffer).
Individually and in combination, the radioprotective properties of Mn^2+, phosphate, uridine and DMSO were determined using E. coli grown in TGY medium; TGY is a peptide-rich medium based on yeast extract, and contains approximately 200 nM Mn.

Row | Compound | radioprotection of a mammalian cell line (mammalian cell line) | radioprotection of a bacterial cell culture (bacterial cell culture) | increase of the resistance of E. coli (E. coli)
1 | Nc1ncnc2c1ncn2[C@@H]1O[C@H](CO)[C@@H](O)[C@H]1O [adenosine] | radioprotective | radioprotective | 
2 | O=c1ccn([C@@H]2O[C@H](CO)[C@@H](O)[C@H]2O)c(=O)[nH]1 [uridine] |  |  | 50 times
3 | phosphate |  |  | 800 times
4 | [Mn+2] [Mn^2+] | radioprotective | radioprotective | did not increase the resistance
5 | C[S+](C)[O-] [DMSO, dimethyl sulfoxide] |  |  | 50 times
